Results as given in ChEMBL document CHEMBL4804283, “Stk19 inhibitors for treatment of cancer” (2020).
Active and inactive are the calls of the source. The calls are words filed in the database; no cut-off is given here.

How the values were obtained:
[1] = target: T1, Inactive serine/threonine-protein kinase 19 (Homo sapiens) (UniProt P49842); assay: Inhibition of wild-type STK19 in human primary melanocytes at 0.1-3 uM relative to control; format: cell-based
T1 sequence (whole entry): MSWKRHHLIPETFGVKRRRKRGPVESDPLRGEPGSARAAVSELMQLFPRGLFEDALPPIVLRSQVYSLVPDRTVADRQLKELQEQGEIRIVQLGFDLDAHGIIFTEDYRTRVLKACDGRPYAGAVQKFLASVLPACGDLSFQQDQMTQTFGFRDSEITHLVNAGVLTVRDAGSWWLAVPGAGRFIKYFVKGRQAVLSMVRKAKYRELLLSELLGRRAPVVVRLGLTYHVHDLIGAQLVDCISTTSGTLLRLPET

[2] = tested on: T2, Inactive serine/threonine-protein kinase 19 (Homo sapiens), P49842 [D89N]; assay: Inhibition of STK19 D89N mutant in human primary melanocytes at 0.1-3 uM relative to control; format: cell-based
T2 sequence (whole entry): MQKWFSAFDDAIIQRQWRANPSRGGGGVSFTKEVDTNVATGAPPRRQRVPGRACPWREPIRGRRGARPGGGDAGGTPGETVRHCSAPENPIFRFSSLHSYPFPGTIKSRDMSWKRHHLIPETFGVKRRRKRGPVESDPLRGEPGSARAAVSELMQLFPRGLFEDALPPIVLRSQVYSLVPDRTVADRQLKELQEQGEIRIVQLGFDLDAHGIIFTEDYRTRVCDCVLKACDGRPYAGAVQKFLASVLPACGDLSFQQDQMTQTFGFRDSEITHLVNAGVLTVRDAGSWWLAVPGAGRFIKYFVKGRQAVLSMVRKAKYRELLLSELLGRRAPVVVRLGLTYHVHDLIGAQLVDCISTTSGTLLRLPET

[3] = Toxicity in C57BL/6J mouse assessed as effect on alanine aminotransferase level at 25 mg/kg, administered twice daily for 20 days; format: organism-based; settings: in vivo, 480 h
[4] = Toxicity in C57BL/6J mouse assessed as effect on alkaline phosphatase level at 25 mg/kg, administered twice daily for 20 days; format: organism-based; settings: in vivo, 480 h
[5] = Toxicity in C57BL/6J mouse assessed as effect on total protein level at 25 mg/kg, administered twice daily for 20 days; format: organism-based; settings: in vivo, 480 h
[6] = Toxicity in C57BL/6J mouse assessed as effect on lactic dehydrogenase level at 25 mg/kg, administered twice daily for 20 days; format: organism-based; settings: in vivo, 480 h
[7] = Toxicity in C57BL/6J mouse assessed as heart histology at 25 mg/kg, administered twice daily for 20 days by H and E staining method; format: organism-based; settings: in vivo, 480 h
[8] = Toxicity in C57BL/6J mouse assessed as lung histology at 25 mg/kg, administered twice daily for 20 days by H and E staining method; format: organism-based; settings: in vivo, 480 h
[9] = Toxicity in C57BL/6J mouse assessed as spleen histology at 25 mg/kg, administered twice daily for 20 days by H and E staining method; format: organism-based; settings: in vivo, 480 h
[10] = Toxicity in C57BL/6J mouse assessed as brain histology at 25 mg/kg, administered twice daily for 20 days by H and E staining method; format: organism-based; settings: in vivo, 480 h
[11] = tested on: SK-MEL-2; assay: Antitumor activity against human SK-MEL-2 cells xenografted in nude mouse assessed as inhibition of cancer cell proliferation at 50 mg/kg, administered for 21 days; format: functional, organism-based
[12] = tested on: SK-MEL-2; assay: Antitumor activity against human SK-MEL-2 cells xenografted in nude mouse assessed as induction of apoptosis at 50 mg/kg, administered for 21 days; format: functional, organism-based
[13] = target: T1, Inactive serine/threonine-protein kinase 19 (Homo sapiens); assay: Inhibition of STK19 in STK19-depleted human primary melanocytes expressing wild-type STK19 at 1-3 uM assessed as NRAS phosphorylation relative to control; format: tissue-based; settings: Melanocyte
[14] = tested on: SK-MEL-2; assay: Inhibition of STK19 in nude mouse xenografted with human SK-MEL-2 cells assessed as decrease in NRAS phosphorylation at 50 mg/kg; format: functional, organism-based
[15] = tested on: SK-MEL-2; assay: Inhibition of G9a in nude mouse xenografted with human SK-MEL-2 cells assessed as decrease in H3K9 methylation at 25 mg/kg; format: functional, organism-based
[16] = target: T1, Inactive serine/threonine-protein kinase 19 (Homo sapiens); assay: Inhibition of STK19 in human SK-MEL-2 cells expressing NRAS Q61R and wild-type BRAF at 1-3 uM assessed as NRAS signaling relative to control; format: cell-based
[17] = target: T1, Inactive serine/threonine-protein kinase 19 (Homo sapiens); assay: Inhibition of STK19 in human SK-MEL-2 cells expressing NRAS Q61R and wild-type BRAF at 1-3 uM assessed as MEK-ERK signaling relative to control; format: cell-based
[18] = target: T1, Inactive serine/threonine-protein kinase 19 (Homo sapiens); assay: Inhibition of STK19 in human WM2032 cells expressing NRAS Q61R and wild-type BRAF at 1-3 uM assessed as MEK-ERK signaling relative to control; format: cell-based
[19] = target: T1, Inactive serine/threonine-protein kinase 19 (Homo sapiens); assay: Inhibition of STK19 in human A375 cells expressing wild-type NRAS and BRAF V600E mutant at 1-3 uM assessed as MEK-ERK signaling relative to control; format: cell-based; settings: A-375
[20] = target: T1, Inactive serine/threonine-protein kinase 19 (Homo sapiens); assay: Inhibition of STK19 in human SK-MEL-2 cells expressing NRAS Q61R and wild-type BRAF at 1-3 uM assessed as PI3K signaling relative to control; format: cell-based
[21] = target: T1, Inactive serine/threonine-protein kinase 19 (Homo sapiens); assay: Inhibition of STK19 in human WM2032 cells expressing NRAS Q61R and wild-type BRAF at 1-3 uM assessed as PI3K signaling relative to control; format: cell-based
[22] = target: T1, Inactive serine/threonine-protein kinase 19 (Homo sapiens); assay: Inhibition of STK19 in human A375 cells expressing wild-type NRAS and BRAF V600E mutant at 1-3 uM assessed as PI3K signaling relative to control; format: cell-based; settings: A-375
[23] = target: T1, Inactive serine/threonine-protein kinase 19 (Homo sapiens); assay: Inhibition of STK19 in human UACC62 cells expressing wild-type NRAS and BRAF V600E mutant at 1-3 uM assessed as PI3K signaling relative to control; format: cell-based; settings: UACC-62
[24] = tested on: WM2032; assay: Growth inhibition of human WM2032 cells expressing NRAS Q61R and wild-type BRAF at 1-3 uM relative to control; format: functional, cell-based
[25] = tested on: A-375; assay: Growth inhibition of human A375 cells expressing wild-type NRAS and BRAF V600E mutant at 1-3 uM relative to control; format: functional, cell-based
[26] = tested on: UACC-62; assay: Growth inhibition of human UACC62 cells expressing wild-type NRAS and BRAF V600E mutant at 1-3 uM relative to control; format: functional, cell-based
[27] = tested on: SK-MEL-2; assay: Induction of apoptosis in human SK-MEL-2 cells expressing NRAS Q61R and wild-type BRAF at 1-3 uM relative to control; format: functional, cell-based
[28] = target: T1, Inactive serine/threonine-protein kinase 19 (Homo sapiens); assay: Inhibition of STK19 in human SK-MEL-2 cells expressing NRAS Q61R and wild-type BRAF at 100 nM assessed as NRAS phosphorylation relative to control; format: cell-based
[29] = target: T1, Inactive serine/threonine-protein kinase 19 (Homo sapiens); assay: Inhibition of STK19 in human SK-MEL-2 cells expressing NRAS Q61R and wild-type BRAF at 300 nM assessed as NRAS phosphorylation relative to control; format: cell-based
[30] = target: T1, Inactive serine/threonine-protein kinase 19 (Homo sapiens); assay: Inhibition of STK19 in human SK-MEL-2 cells expressing NRAS Q61R and wild-type BRAF at 300 nM assessed as H3K9 methylation relative to control; format: cell-based
[31] = target: T1, Inactive serine/threonine-protein kinase 19 (Homo sapiens); assay: Inhibition of STK19 in human WM2032 cells expressing NRAS Q61R and wild-type BRAF at 300 nM assessed as H3K9 methylation relative to control; format: cell-based

SMILES: COc1cc2nc(NC3CC3)nc(NC3CCN(C(C)C)CC3)c2cc1OC.O=C(O)C(F)(F)F
- inhibition [1]: Active
- inhibition [2]: Active
- Activity [3]: Non-Toxic
- Activity [4]: Non-Toxic
- Activity [5]: Non-Toxic
- Activity [6]: Non-Toxic
- Activity [7]: Non-Toxic
- Activity [8]: Non-Toxic
- Activity [9]: Non-Toxic
- Activity [10]: Non-Toxic
- Activity [11]: Active
- Activity [12]: Active
- inhibition [13]: Active
- inhibition [14]: Active
- inhibition [15]: inactive
- inhibition [16]: Active
- inhibition [17]: Active
- inhibition [18]: Active
- inhibition [19]: inactive
- inhibition [20]: Active
- inhibition [21]: Active
- inhibition [22]: inactive
- inhibition [23]: inactive
- Activity [24]: Active
- Activity [25]: inactive
- Activity [26]: inactive
- Activity [27]: Active
- inhibition [28]: Active
- inhibition [29]: Active
- inhibition [30]: inactive
- inhibition [31]: inactive
